We go through 28 molecules from US10407445B2, “Hepatitis C virus inhibitors” (ENANTA PHARMACEUTICALS, INC., priority 2013, dated 2019).

Common to all, as to type: cell-based
One assay deals with HCV GT 1a replicon. The assay is described as follows: HCV replicon assay, stable GT 1a replicon (Renilla luciferase). The note with it: Hepatitis C virus, GT1A; HCV GT 1a replicon, 72 h; read-out: EC50 1a. In a few lines:
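Huh-7.5 cells stably carrying a GT1a replicon (H77-based) with Renilla luciferase-Neo reporter, 4000 cells/well, sixteen-point half-log compound series, phenol red-free DMEM without G418. Luciferase read after 72 h relative to DMSO-treated cells gives EC50.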
(Replicon systems follow genome replication, usually without infectious particles.)

Assay [1] has as its system GT1a replicon encoding NS5A mutation M28T. The assay is described as follows: Transient replication assay, GT1a replicon with NS5A mutation M28T. The conditions noted are these: Hepatitis C virus, read-out: EC50 1a M28T.
In assay [2] the test system is GT1a replicon encoding NS5A mutation Y93H. The assay is described as follows: Transient replication assay, GT1a replicon with NS5A mutation Y93H. The conditions noted are these: Hepatitis C virus, read-out: EC50 1a Y93H.

Structures are written as SMILES.

Turning to `COC(=O)N[C@H](C(=O)N1C[C@]2(CCOC2)C[C@H]1c1ncc(-c2ccc(-c3ccc4c(ccc5nc([C@@H]6CCCN6C(=O)[C@@H](NC(=O)OC)C(C)C)[nH]c54)c3)cc2)[nH]1)C(C)C` [Compound 26], the results for the EC50 (in the assay on HCV GT 1a replicon; in assay [1]; in assay [2]) were 0.025 nM, 3 nM and 42 nM, respectively.
As to `COC(=O)N[C@H](C(=O)N1C[C@@]2(CCCOC2)C[C@H]1c1ncc(-c2ccc(-c3ccc4c(ccc5nc([C@@H]6CCCN6C(=O)[C@@H](NC(=O)OC)C(C)C)[nH]c54)c3)cc2)[nH]1)C(C)C` [Compound 27], the EC50 – broadly, the concentration that produces a half-maximal response – in the assay on HCV GT 1a replicon was found to be 0.013 nM; in assay [1] it was 0.03 nM; in assay [2], 1 nM.
The matching figures for `COC(=O)N[C@H](C(=O)N1C[C@]2(CCCOC2)C[C@H]1c1ncc(-c2ccc(-c3ccc4c(ccc5nc([C@@H]6CC7(CC7)CN6C(=O)[C@@H](NC(=O)OC)C(C)C)[nH]c54)c3)cc2)[nH]1)C(C)C` [Compound 28]: 0.011 nM, 0.09 nM and 16 nM.
The matching figures for `COC(=O)N[C@H](C(=O)N1C[C@]2(CCCOC2)C[C@H]1c1ncc(-c2ccc(-c3ccc4c(ccc5nc([C@@H]6C[C@@H]7CCCC[C@@H]7N6C(=O)[C@@H](NC(=O)OC)C(C)C)[nH]c54)c3)cc2)[nH]1)C(C)C` [Compound 29]: 0.006 nM, 0.02 nM and 7 nM.
The matching figures for `COC(=O)N[C@H](C(=O)N1C[C@]2(CCCOC2)C[C@H]1c1ncc(-c2ccc(-c3ccc4c(c3)OCc3nc([C@@H]5CCCN5C(=O)[C@@H](NC(=O)OC)C(C)C)[nH]c3-4)cc2)[nH]1)C(C)C` [Compound 30]: 0.05 nM, 0.6 nM and 13 nM.
For `COC(=O)N[C@H](C(=O)N1C[C@]2(CCCOC2)C[C@H]1c1nc2ccc3cc(-c4ccc5c(ccc6nc([C@@H]7C[C@@]8(CCCOC8)CN7C(=O)[C@@H](NC(=O)OC)C(C)C)[nH]c65)c4)ccc3c2[nH]1)C(C)C` [Compound 31], the 50% effective concentration (EC50) in the assay with HCV GT 1a replicon was determined as 0.03 nM; in assay [1] it was 0.007 nM; in assay [2], 0.2 nM.
The matching figures for `COC(=O)N[C@H](C(=O)N1C[C@]2(CCCOC2)C[C@H]1c1ncc(-c2ccc(-c3ccc(-c4cnc([C@@H]5C[C@@H]6CCCC[C@@H]6N5C(=O)[C@@H](NC(=O)OC)C(C)C)[nH]4)cc3)cc2)[nH]1)C(C)C` [Compound 32]: 0.007 nM, 0.05 nM and 7 nM.
For the molecule `COC(=O)N[C@H](C(=O)N1CCC[C@H]1c1ncc(-c2ccc(-c3ccc4c(c3)OCc3nc([C@@H]5C[C@@]6(CCCOC6)CN5C(=O)[C@@H](NC(=O)OC)C(C)C)[nH]c3-4)cc2)[nH]1)C(C)C` [Compound 33], the EC50 in the assay with HCV GT 1a replicon stood at 0.027 nM; in assay [1], 0.3 nM; in assay [2], 4 nM.
With `COC(=O)N[C@H](C(=O)N1C[C@]2(CCCOC2)C[C@H]1c1nc2ccc3cc(-c4ccc(-c5cnc([C@@H]6C[C@@H]7COC[C@@H]7N6C(=O)[C@@H](NC(=O)OC)C(C)C)[nH]5)cc4)ccc3c2[nH]1)C(C)C` [Compound 34], the EC50 in the assay on HCV GT 1a replicon is 0.024 nM; in assay [1] it was 0.03 nM; in assay [2], 4 nM.
Turning to `COC(=O)N[C@H](C(=O)N1C[C@]2(CCCOC2)C[C@H]1c1ncc(-c2ccc(-c3ccc4c(ccc5nc([C@@H]6C[C@@H]7COC[C@@H]7N6C(=O)[C@@H](NC(=O)OC)C(C)C)[nH]c54)c3)cc2)[nH]1)C(C)C` [Compound 35], the EC50 in the assay on HCV GT 1a replicon stood at 0.028 nM; in assay [1], 0.2 nM; in assay [2] it was 26 nM.
The matching figures for `COC(=O)N[C@H](C(=O)N1C[C@]2(CCCOC2)C[C@H]1c1nc2ccc3cc(-c4ccc5c(ccc6nc([C@@H]7C[C@@H]8COC[C@@H]8N7C(=O)[C@@H](NC(=O)OC)C(C)C)[nH]c65)c4)ccc3c2[nH]1)C(C)C` [Compound 36]: 0.029 nM, 0.08 nM and 8 nM.
The matching figures for `COC(=O)N[C@H](C(=O)N1C[C@]2(CCCOC2)C[C@H]1c1ncc(-c2ccc(-c3ccc(-c4cnc([C@@H]5C[C@@H]6CCC[C@@H]6N5C(=O)[C@@H](NC(=O)OC)C(C)C)[nH]4)cc3)cc2)[nH]1)C(C)C` [Compound 37]: 0.008 nM, 0.03 nM and 15 nM.
The matching figures for `COC(=O)N[C@H](C(=O)N1C[C@]2(CCCOC2)C[C@H]1c1ncc(-c2ccc(-c3ccc4c(c3)CCCc3nc([C@@H]5C[C@@H]6CCCC[C@@H]6N5C(=O)[C@@H](NC(=O)OC)C(C)C)[nH]c3-4)cc2)[nH]1)C(C)C` [Compound 40]: 0.011 nM, 0.6 nM and 8 nM.
Regarding `COC(=O)N[C@H](C(=O)N1C[C@]2(CCCOC2)C[C@H]1c1ncc(-c2ccc(-c3ccc4c(c3)OCc3nc([C@@H]5C[C@@H]6CCCC[C@@H]6N5C(=O)[C@@H](NC(=O)OC)C(C)C)[nH]c3-4)cc2)[nH]1)C(C)C` [Compound 42], the EC50 was found to be 0.006 nM with HCV GT 1a replicon, 0.2 nM in assay [1] and 16 nM in assay [2].
The matching figures for `COC(=O)N[C@H](C(=O)N1CCC[C@H]1c1ncc(-c2ccc(-c3ccc4c(ccc5nc([C@@H]6C[C@@]7(CCCOC7)CN6C(=O)[C@@H](NC(=O)OC)C(C)C)[nH]c54)c3)cc2)[nH]1)C(C)C` [Compound 44]: 0.01 nM, 0.06 nM and 6 nM.
The matching figures for `COC(=O)N[C@H](C(=O)N1C[C@]2(CCCOC2)C[C@H]1c1ncc(-c2ccc(-c3ccc4c(ccc5nc([C@@H]6CCCN6C(=O)[C@@H](NC(=O)OC)C(C)C)[nH]c54)c3)cc2)[nH]1)C(C)C` [Compound 47]: 0.015 nM, 0.2 nM and 8 nM.
Consider `COC(=O)N[C@H](C(=O)N1CCC[C@H]1c1nc2ccc3cc(-c4ccc5c(ccc6nc([C@@H]7C[C@@]8(CCCOC8)CN7C(=O)[C@@H](NC(=O)OC)C(C)C)[nH]c65)c4)ccc3c2[nH]1)C(C)C` [Compound 48], for which the EC50 worked out at 0.006 nM in the assay with HCV GT 1a replicon, 0.05 nM in assay [1] and 2 nM in assay [2].
The matching figures for `COC(=O)N[C@H](C(=O)N1C[C@@]2(CCOC2)C[C@H]1c1ncc(-c2ccc(-c3ccc4c(ccc5nc([C@@H]6C[C@]7(CCOC7)CN6C(=O)[C@@H](NC(=O)OC)C(C)C)[nH]c54)c3)cc2)[nH]1)C(C)C` [Compound 49]: 0.01 nM, 1 nM and 12 nM.
The matching figures for `COC(=O)N[C@H](C(=O)N1C[C@@]2(CCOC2)C[C@H]1c1ncc(-c2ccc(-c3ccc4c(ccc5nc([C@@H]6CCCN6C(=O)[C@@H](NC(=O)OC)C(C)C)[nH]c54)c3)cc2)[nH]1)C(C)C` [Compound 50]: 0.014 nM, 0.5 nM and 7 nM.
The matching figures for `COC(=O)N[C@H](C(=O)N1CCC[C@H]1c1ncc(-c2ccc(-c3ccc4c(ccc5nc([C@@H]6C[C@]7(CCOC7)CN6C(=O)[C@@H](NC(=O)OC)C(C)C)[nH]c54)c3)cc2)[nH]1)C(C)C` [Compound 51]: 0.011 nM, 0.1 nM and 4 nM.
Turning to `COC(=O)N[C@H](C(=O)N1C[C@]2(CCCCO2)C[C@H]1c1nc(-c2ccc(-c3ccc4c(ccc5nc([C@@H]6CCCN6C(=O)[C@@H](NC(=O)OC)C(C)C)[nH]c54)c3)cc2)c[nH]1)C(C)C` [Example 2], the EC50 turned out to be 0.012 nM in the assay on HCV GT 1a replicon, 0.1 nM in assay [1] and 9 nM in assay [2].
The matching figures for `COC(=O)N[C@H](C(=O)N1C[C@@]2(CCCCO2)C[C@H]1c1nc(-c2ccc(-c3ccc4c(ccc5nc([C@@H]6CCCN6C(=O)[C@@H](NC(=O)OC)C(C)C)[nH]c54)c3)cc2)c[nH]1)C(C)C` [Example 3]: 0.146 nM, 6 nM and 6 nM.
The matching figures for `COC(=O)N[C@H](C(=O)N1C[C@]2(CCCO2)C[C@H]1c1ncc(-c2ccc(-c3ccc4c(ccc5nc([C@@H]6CCCN6C(=O)[C@@H](NC(=O)OC)C(C)C)[nH]c54)c3)cc2)[nH]1)C(C)C` [Example 81]: 0.015 nM, 0.3 nM and 15 nM.
The matching figures for `COC(=O)N[C@H](C(=O)N1C[C@@]2(CCCO2)C[C@H]1c1ncc(-c2ccc(-c3ccc4c(ccc5nc([C@@H]6CCCN6C(=O)[C@@H](NC(=O)OC)C(C)C)[nH]c54)c3)cc2)[nH]1)C(C)C` [Example 82]: 0.059 nM, 14 nM and 5 nM.
Take `COC(=O)N[C@H](C(=O)N1CC2(CCOCC2)C[C@H]1c1ncc(-c2ccc(-c3ccc4c(ccc5nc([C@@H]6CCCN6C(=O)[C@@H](NC(=O)OC)C(C)C)[nH]c54)c3)cc2)[nH]1)C(C)C` [Example 83]: the EC50 in the assay with HCV GT 1a replicon was 0.029 nM; in assay [1], 0.9 nM; in assay [2], 26 nM.
The matching figures for `COC(=O)N[C@H](C(=O)N1CCC[C@H]1c1nc2ccc3cc(-c4ccc5c(ccc6nc([C@@H]7CCCN7C(=O)[C@@H](NC(=O)OC)C(C)C)[nH]c65)c4)ccc3c2[nH]1)C(C)C` [Example 101]: 0.011 nM, 1 nM and 25 nM.
The matching figures for `COC(=O)N[C@H](C(=O)N1CCC[C@H]1c1ncc(-c2ccc(-c3ccc4c(ccc5nc([C@@H]6CCCN6C(=O)[C@@H](NC(=O)OC)C(C)C)[nH]c54)c3)cc2)[nH]1)C(C)C` [Example 102]: 0.015 nM, 1 nM and 22 nM.
The matching figures for `COC(=O)N[C@H](C(=O)N1CCC[C@H]1c1nc2ccc(C#Cc3ccc4c(ccc5nc([C@@H]6CCCN6C(=O)[C@@H](NC(=O)OC)C(C)C)[nH]c54)c3)cc2[nH]1)C(C)C` [Example 103]: 0.012 nM, 6 nM and 112 nM.
